Assay results: the supplement of paper PMC10307832

Legend:
Test in all cases: relative viability (nuclei count vs DMSO), 5 days (fraction); higher = more cells survive
IDH-C35 + Palbociclib = compound: Cc1ccccc1C(C(=O)NC1CCCCC1)N(C(=O)Cn1ccnc1C)c1cccc(F)c1 [IDH-C35] + CC(=O)c1c(C)c2cnc(Nc3ccc(N4CCNCC4)cn3)nc2n(C2CCCC2)c1=O [Palbociclib] (partner 0.5 µM)
Outline: (§1)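 Dosing by pin tool came one day after lung cancer cell lines were seeded in 1536-well plates, using either one drug or a fixed anchor-drug dose plus five library-drug doses (not always all listed) in √10 steps. After 5 days, nuclei were counted on 4× images. Relative viability is treated-well nuclei count divided by vehicle-well nuclei count, and values are medians of duplicate plates.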

[1] = compound: CC1=C(C(=NN1)C)CC2=C(C3=C(S2)N(C(=O)N(C3=O)C)CC(C)C)C(=O)N4C[C@@H](CO4)O + NC(=O)Nc1cc(-c2cccc(F)c2)sc1C(=O)N[C@H]1CCCNC1 [AZD7762] (partner 0.2 µM)
Outline: as §1

[2] = compound: CC1=C(C(=NN1)C)CC2=C(C3=C(S2)N(C(=O)N(C3=O)C)CC(C)C)C(=O)N4C[C@@H](CO4)O + CCNC(=O)c1noc(-c2cc(C(C)C)c(O)cc2O)c1-c1ccc(CN2CCOCC2)cc1 [Luminespib] (partner 0.01 µM)
Outline: as §1

[3] = compound: CC1=C(C(=NN1)C)CC2=C(C3=C(S2)N(C(=O)N(C3=O)C)CC(C)C)C(=O)N4C[C@@H](CO4)O + CC(=O)c1c(C)c2cnc(Nc3ccc(N4CCNCC4)cn3)nc2n(C2CCCC2)c1=O [Palbociclib] (partner 0.5 µM)
Outline: as §1

Row | Cell Line | relative viability (IDH-C35 + Palbociclib; first compound 0.08 µM) | relative viability (IDH-C35 + Palbociclib; first compound 0.253 µM) | relative viability (IDH-C35 + Palbociclib; first compound 0.8 µM) | relative viability (IDH-C35 + Palbociclib; first compound 2.53 µM) | relative viability (IDH-C35 + Palbociclib; first compound 8 µM) | relative viability ([1]; first compound 0.0025 µM) | relative viability ([1]; first compound 0.007906 µM) | relative viability ([1]; first compound 0.025 µM) | relative viability ([1]; first compound 0.07906 µM) | relative viability ([1]; first compound 0.25 µM) | relative viability ([2]; first compound 0.0025 µM) | relative viability ([2]; first compound 0.007906 µM) | relative viability ([2]; first compound 0.025 µM) | relative viability ([2]; first compound 0.07906 µM) | relative viability ([2]; first compound 0.25 µM) | relative viability ([3]; first compound 0.0025 µM) | relative viability ([3]; first compound 0.007906 µM) | relative viability ([3]; first compound 0.025 µM) | relative viability ([3]; first compound 0.07906 µM) | relative viability ([3]; first compound 0.25 µM)
1 | HCC-44 | 0.973 | 0.965 | 0.987 | 0.951 | 0.962 | 1 | 0.984 | 0.98 | 1.06 | 1.07 | 0.97 | 1.11 | 1.03 | 0.958 | 1.38 | 0.989 | 0.992 | 0.961 | 0.894 | 1.05
2 | HCC-827 | 0.475 | 0.483 | 0.397 | 0.562 | 0.472 | 0.233 | 0.199 | 0.196 | 0.196 | 0.2 | 0.748 | 0.445 | 0.56 | 0.513 | 0.482 | 0.403 | 0.414 | 0.339 | 0.541 | 0.466
3 | NCI-H1623 | – | – | – | – | – | – | – | – | – | – | 0.64 | 0.601 | 0.503 | 0.499 | 0.554 | – | – | – | – | –
4 | NCI-H1650 | 0.381 | 0.329 | 0.355 | 0.422 | 0.4 | – | – | – | – | – | 0.188 | 0.192 | 0.203 | 0.192 | 0.217 | 0.344 | 0.351 | 0.374 | 0.327 | 0.347
5 | HCC-78 | 0.462 | 0.437 | 0.439 | 0.494 | 0.553 | 0.538 | 0.588 | 0.555 | 0.529 | 0.673 | – | – | – | – | – | 0.534 | 0.546 | 0.464 | 0.469 | 0.44
6 | NCI-H1563 | – | – | – | – | – | – | – | – | – | – | 0.553 | 0.542 | 0.524 | 0.492 | 0.509 | – | – | – | – | –
7 | COR-L23 | 0.31 | 0.294 | 0.305 | 0.311 | 0.315 | – | – | – | – | – | 0.756 | 0.744 | 0.666 | 0.549 | 0.765 | 0.291 | 0.266 | 0.238 | 0.245 | 0.318
8 | NCI-H1648 | – | 0.271 | 0.322 | 0.246 | 0.285 | 0.615 | 0.437 | 0.5 | 0.428 | 0.613 | – | – | – | – | – | 0.261 | 0.271 | 0.297 | 0.207 | 0.283
9 | NCI-H1703 | – | – | – | – | – | 0.113 | 0.144 | 0.112 | 0.113 | 0.136 | – | – | – | – | – | – | – | – | – | –
10 | SK-LU-1 | 0.47 | 0.387 | 0.366 | 0.391 | 0.418 | – | – | – | – | – | 0.187 | 0.177 | 0.182 | 0.183 | 0.182 | 0.375 | 0.349 | 0.294 | 0.278 | 0.281
11 | COR-L 105 | 0.417 | 0.413 | 0.41 | 0.407 | 0.401 | – | – | – | – | – | 0.739 | 0.807 | 0.533 | 0.638 | 0.617 | 0.433 | 0.423 | 0.395 | 0.403 | 0.383
12 | HCC-366 | 0.374 | 0.399 | 0.381 | 0.38 | 0.321 | 0.271 | 0.361 | 0.297 | 0.277 | 0.378 | – | – | – | – | – | 0.377 | 0.406 | 0.387 | 0.372 | 0.523
13 | NCI-H596 | – | – | – | – | – | 1.29 | 1.25 | 1.06 | 0.976 | 1.01 | 0.991 | 1.12 | 0.992 | 1.03 | 1.24 | – | – | – | – | –
14 | NCI-H2228 | 0.795 | 0.728 | 0.738 | 0.723 | 0.728 | – | – | – | – | – | 0.145 | 0.161 | 0.207 | 0.111 | 0.144 | 0.794 | 0.768 | 0.779 | 0.793 | 0.933
15 | SK-MES-1 | 0.307 | 0.286 | 0.301 | 0.317 | 0.271 | – | – | – | – | – | 1.01 | 0.782 | 0.969 | 0.846 | 0.888 | 0.358 | 0.336 | 0.319 | 0.329 | 0.333
16 | SW 1573 | 0.43 | 0.432 | 0.388 | 0.462 | 0.353 | – | – | – | – | – | 0.32 | 0.322 | 0.443 | 0.213 | 0.332 | 0.469 | 0.439 | 0.42 | 0.407 | 0.47
17 | NCI-H661 | 0.433 | 0.407 | 0.392 | 0.41 | 0.384 | – | – | – | – | – | 0.877 | 0.938 | 0.824 | 0.913 | 0.885 | 0.395 | 0.426 | 0.455 | 0.396 | 0.426
18 | NCI-H520 | 0.206 | 0.268 | 0.215 | 0.225 | 0.23 | – | – | – | – | – | 0.211 | 0.24 | 0.217 | 0.199 | 0.185 | 0.256 | 0.225 | 0.259 | 0.239 | 0.204
19 | NCI-H2023 | 0.398 | 0.34 | 0.378 | 0.384 | 0.357 | – | – | – | – | – | 0.868 | 0.945 | 0.725 | 0.603 | 0.737 | 0.305 | 0.375 | 0.296 | 0.402 | 0.491
20 | NCI-H2009 | 0.25 | 0.28 | 0.32 | 0.227 | 0.147 | – | – | – | – | – | 1.07 | 1.06 | 1.06 | 1.13 | 1.02 | 0.222 | 0.206 | 0.221 | 0.319 | 0.175
